In data set [1] the test system is Hyline W-36 and Brown layer hens. Kind of data set: Example 3: offspring sex ratio after acute corticosterone injection five hours before ovulation, laying hens. The data set is classed as in vivo, chicken. The protocol:
Hyline W-36 and Brown layer hens were housed in individual layer cages in a single room, had ad libitum access to food and water, and maintained on a 14 h L:10 h D light schedule. Hens were artificially inseminated biweekly with pooled semen from 8 roosters to ensure egg fertilization. Hens were monitored throughout the day for egg-laying and eggs were collected manually every 2 h during peak-laying hours. Previous studies in laying hens have shown that ovulation occurs within 30 minutes of oviposition (Johnson, A. L. Reproduction in the female, in Sturkie's Avian Physiology. G. C. Whittow, Editor. 2000, Academic Press: New York, N.Y. p. 569-596); therefore, egg laying patterns can be used to predict the timing of ovulation.
Injection treatments were administered to hens subcutaneously in the back of the neck five hours prior to the predicted time of ovulation with one of the following treatments: 0.5 ml of control peanut oil (CONT) or 1.5 mg corticosterone dissolved in 0.5 ml of peanut oil (CORT). Ovulated follicles took 24 h to pass through the remainder of the reproductive tract and were collected at oviposition (FIG. 6). […]
Statistical Analysis. […] Plasma corticosterone concentrations were analyzed among treatment groups and time points using an ANOVA and differences among individual treatment groups were analyzed using Fisher's PLSD. […]

A short description of data set [2]: Example 2: plasma corticosterone radioimmunoassay after injection, zebra finches. The class given is in vivo, Zebra finch (Taeniopygia guttata). The settings on record: zebra finch, 20 ug. The protocol: Radioimmunoassays. […] Different individuals were sampled at each time point. Blood samples were also taken from a set of unmanipulated females at time intervals 20 minutes and 1 hour, during the same bleeding session. To ensure that measurements reflect corticosterone elevations associated with the injection and not the stress of handling, samples were taken from the brachial vein within 3 minutes of capture (Romero and Romero, 2002, Condor; 104:129-135; Wingfield et al., 1982, Condor; 84:399-409). Injections and sampling began at 2300 hours (5 hors prior to ovulation) to accurately measure the blood plasma levels of corticosterone and changes in corticosterone levels in response to injections during the approximate period that meiosis occurs. Based on studies done in other avian species, it is likely that the time period from injection to blood sampling is just prior to the natural diurnal CORT peak that occurs at the end of the dark period (Westerhof et al., 1994, Avian Diseases; 38:428-434; de Jong et al., 2001, Physiology and Behavior; 74:299-304). The procedures for extraction and radioimmunoassay of corticosterone from plasma were followed as described by (Wingfield and Farner, 1975, Steroids; 26:311-327) and (Mendonça et al., 1996, Horm Behav; 30:153-161) using a rabbit derived anti-corticosterone antibody (MP Biomedicals, Solon, Ohio USA, cat #07-120016).
Statistical Analysis. Plasma CORT concentrations were analyzed among treatment groups and time points using a two-way ANOVA, and individual treatment differences were analyzed using Fisher's PLSD. All hormone data were non-normally distributed and were thus log transformed for statistical analyses.

A short description of data set [3]: Example 3: plasma corticosterone radioimmunoassay after injection, laying hens. The data set is classed as in vivo, chicken. The settings on record: 1.5 mg.
Procedure: Radioimmunoassays. Blood samples were collected from a separate set of hens to verify that CORT treatment elevated plasma corticosterone during the completion of meiotic segregation. Relative to the injections described above (5 h prior to ovulation), blood samples were collected from half of the CORT, CONT, and UN-treated hens at 1 h and the other half at 4 h (FIG. 6). Blood samples were collected from the brachial vein within 3 min of initial handling to avoid variation due to handling stress (Romero and Reed, 2005, Comp Biochem Physiol A; 140:73-79). Extraction and radioimmunoassay of plasma corticosterone were completed as described by Mendonça et al. (Mendonça et al., 1996, Horm Behav; 30:153-161). Twenty-four blood samples were analyzed from UN-treated hens (12 from each time period), 12 from CONT-treated hens (5 and 7 at 1 h and 4 h, respectively), and 12 from CORT-treated hens (6 from each time period).
Statistical Analysis. […] All hormone data were non-normally distributed and were log-transformed for statistical analysis. Plasma corticosterone concentrations were analyzed among treatment groups and time points using an ANOVA and differences among individual treatment groups were analyzed using Fisher's PLSD. Statistical analyses were carried out using Statview software (SAS Institute, Cary, N.C. USA).
For data set [4], the system named is zebra finch (Taeniopygia guttata). Kind of data set: Example 2: disruption of ovulation, oviposition and embryo development after injection, zebra finches. The data set is classed as in vivo. Particulars: 20 ug injection, relative to control and uninjected groups. The protocol: Zebra finch (Taeniopygia guttata) pairs obtained from a breeding colony maintained at The University of Georgia were housed in individual cages and provided feed and water ad libidumn. Birds were kept under a 14 hour (h) light (L):10 h dark (D) light schedule. Egg-laying was monitored daily and eggs marked to record sequence order. Females were injected intraperitoneally after the first or second egg of the clutch was laid with one of three treatments: 20 μg of CORT dissolved in 50 μl peanut oil and 10% ethanol (CORT), 20 μg of progesterone dissolved in […] and 10% ethanol (P), or 50 μl of control peanut oil (C). A fourth set of females received no injection treatment (UN). […] The follicle ovulating 5 hours after injection, was laid approximately 36 hours after injection (FIG. 3). Ovulating follicles exposed to treatments were laid as the 3rd or 4th egg in the sequence (3rd egg if treatment was administered on the day the 1st egg was laid and the 4th egg in the sequence if treatment was administered on the day the 2nd egg was laid). Eggs were allowed to incubate in the nest for 8-12 days prior to collection to allow sufficient embryonic development for DNA extraction and molecular sexing analyses. Occasionally these treatments disrupted the oviposition immediately following the injection. Females that delayed oviposition after treatment were excluded from analysis because it was not possible to determine whether the egg collected the following day was from the ovulation event that occurred immediately following injection or from a delayed oviposition of the follicle ovulated the day prior to injection. Females that delayed oviposition were allowed to complete the clutch after which the treatment was repeated during the next clutch. […] Only 1/10 females treated with progesterone laid successfully. For this reason, progesterone treatments were eliminated from further analyses.

Data set [5] is described as follows: Testosterone concentrations after a pharmacological dose of CORT (Examples 1 and 2). The class given is in vivo, zebra finches. The settings on record: within 1-3 hours of administration.

“And” between values parts separate entries of the source, which are not always exact repeats. Equal entries are not always repeated.

In the case of `C[C@]12C[C@H](O)[C@H]3[C@@H](CCC4=CC(=O)CC[C@@]43C)[C@@H]1CC[C@@H]2C(=O)CO` [corticosterone], the “males produced (offspring sex ratio)” value in data set [1] (1.5 mg in 0.5 ml peanut oil subcutaneously five hours before ovulation, p=0.01 vs all hens the day before, p=0.72 vs control injection) was ~83% and 82.6%. Also, the “males produced after treatment compared to before treatment, same hens” value in data set [1] (1.5 mg, target versus pre-target eggs, p=0.02) is reported as “produced significantly more males”. The “plasma corticosterone levels compared to non-injected birds” value in data set [2] (20 minutes after injection, p<0.0001) is on record as “raised corticosterone levels significantly”; in data set [2] (1 hour post-injection, p=0.0002), “remained significantly elevated”. The “levels of corticosterone post-injection” value in data set [2] (20 minutes, 1 hour and 2.5 hours post-injection (summary statement)) is “significantly elevated levels of corticosterone”. Further, in data set [2] (2.5 hours after injection, p=0.0789), the “plasma corticosterone levels, CORT treated versus control treated females” value was “similar”. In addition, the “plasma corticosterone levels compared to unmanipulated females” value in data set [2] (2.5 hr post-injection versus unmanipulated birds sampled at 1 h, p=0.0401) is “significantly higher corticosterone levels”. In addition, the “plasma corticosterone levels (FIG. 4 legend)” value in data set [2] (min and one hour after injection) is listed as “significantly raised plasma corticosterone levels”. In addition, the “plasma corticosterone levels compared to CONT and UN treated hens” value in data set [3] (1 h after injection, p<0.0001 in both cases) is reported as “significantly raised corticosterone levels”. The plasma corticosterone concentrations entry in data set [3] (four hours post-injection, CORT-UN p<0.01, CORT-CONT p=0.07) is given as “only significantly elevated in CORT-treated hens”. Further, the “effect on oviposition, ovulation or visible development” value in data set [4] (listed as CORT) is on record as “not more likely to occur”; in data set [4] (listed as Corticosterone), “did not adversely affect oviposition or ovulation”. The “testosterone concentrations after CORT” value in data set [5] is recorded as “testosterone concentrations increased significantly”.

The values are drawn from patent US8889662B2, “Method to alter sex ratios in avian offspring” (University of Georgia Research Foundation, Inc., priority 2009, dated 2014).
